# Measurements from US20200383985A1, “Inhibitors of Protease Activated Receptor-2” (Endosome Therapeutics, Inc., priority 2017, published 2020).
# pIC50: −log10 of the molar value. Read-outs that look alike come from different tables or passages of the source.
# Experiments:
# Assay type in all cases: cell-based
# [1] = test system: mouse DRG neurons; assay: Patch clamp rheobase of DRG neurons: IBS-D biopsy supernatant-induced hyperexcitability
# Experimental: An investigation as whether proteases from mucosal biopsies of IBS patients cause a persistent hyperexcitability of nociceptors was conducted by a mechanism that entails endosomal signaling of PAR2. Biopsies of colonic mucosa from patients with diarrhea-predominant IBS (IBS-D) or healthy control (HC) subjects were placed in culture medium (24 h, 37° C.). Mouse DRG neurons were then exposed to biopsy supernatants (30 min, 37° C.) and washed. Rheobase was measured 30 min after washing to assess persistent hyperexcitability. Supernatants of biopsies from IBS-D patients caused a persistent decrease in rheobase, consistent with hyperexcitability, when compared to supernatants from HC subjects (rheobase at 30 min: HC, 78.33±4.41 pA, 12 neurons, supernatant from 4 HC; IBS-D, 54.55±4.74 pA, 11 neurons, supernatant from 4 IBS-D; P<0.05; ANOVA, Tukey's multiple comparisons test) (FIG. 6A, B). I-343 (10 μM), Dy4 (dynamin inhibitor, 30 μM) and PD98059 (MEK1 inhibitor, 50 μM) abolished IBS-D-induced hyperexcitability of nociceptors (FIG. 6A-D).
# The Queen's University Human Ethics Committee approved human studies. All subjects gave informed consent. Endoscopic biopsies were obtained from the descending colon of 13 adult IBS-D patients (12 female) diagnosed using ROME III criteria for diarrhea predominant IBS and of 12 health controls. All IBS patients had symptoms greater than 1 year and most were greater than 5 years. Celiac disease was excluded by blood test and patients over 40 years with daily diarrhea were biopsied at the time of colonoscopy to exclude microscopic colitis. […] Biopsies (8 samples per patient) were incubated in 250 μl of RPMI medium containing 10% fetal calf serum, penicillin/streptomycin and gentamicin/amphotericin B (95% O2/5% […], 24 h, 37° C.). Supernatants were stored at −80° C. Supernatants from 4-6 patients were pooled and studied in individual experiments.
# DRG innervating the colon (T9-T13) were collected from C57BL/6 mice. Ganglia were digested by incubation in collagenase IV (1 mg/ml, Worthington) and dispase (4 mg/ml, Roche) (10 min, 37° C.). DRG were triturated with a fire-polished Pasteur pipette, and further digested (5 min, 37° C.). Neurons were washed, plated onto laminin- (0.017 mg/ml) and poly-D-lysine- (2 mg/ml) coated glass coverslips, and were maintained in F12 medium containing 10% fetal calf serum, penicillin and streptomycin (95% air, 5% CO2, 16 h, 37° C.) until retrieval for electrophysiological studies.
# Small-diameter (<30 pF capacitance) neurons were studied because they display characteristics of nociceptors (Valdez-Morales E. E. et al., Am J Gastroenterol 2013, 108(10): 1634-1643). Changes in excitability were quantified by measuring rheobase. Whole-cell perforated patch-clamp recordings were made using Amphotericin B (240 μg/ml, Sigma Aldrich) in current clamp mode at room temperature. The recording chamber was perfused with external solution at 2 ml/min. Recordings were made using Multiclamp 700B or Axopatch 200B amplifiers, digitized by Digidata 1440A or 1322A, and processed using pClamp 10.1 software (Molecular Devices). Solutions had the composition (mM): pipette—K-gluconate 110, KC130, HEPES 10, MgCl2 1, CaCl2 2; pH 7.25 with 1 M KOH; external—NaCl 140, KCl 5 HEPES 10, glucose 10, MgCl2 1, CaCl2 2; pH to 7.3-7.4 with 3 M NaOH. […] Neurons were also preincubated with trypsin (50 nM, 10 min), NE (390 nM, 30 min), CS (500 nM, 60 min), or vehicle (37° C.), and washed. Rheobase was measured at T 0 or T 30 min after washing. To investigate mechanisms of protease-evoked effects, neurons were incubated with I-343 (100 nM, 300 nM, 10 μM, 30 min preincubation), SCH79797 (1 μM, 10 min), Dy4 (30 μM, 30 min), PS2 (15 μM, 30 min), PD98059 (50 μM, 30 min), GF109203X (10 μM, 30 min), or vehicle (preincubation and inclusion throughout). In experiments using the tripartite antagonist, neurons were preincubated with Compound 10 (30 μM, 60 min, 37° C.) or vehicle and washed. […]
# [2] = target: T1, PAR2 (Homo sapiens, UniProt P55085); assay: IP1 accumulation assay in HT-29 cells (endogenous PAR2); settings: 2F (300 nM)-induced IP1, HT-29 cells
# T1 construct: HT-29 cells and HEK293 cells, which express endogenous PAR2; endogenous in cells; host or cells: HT-29
# T1 sequence (P55085 26-397): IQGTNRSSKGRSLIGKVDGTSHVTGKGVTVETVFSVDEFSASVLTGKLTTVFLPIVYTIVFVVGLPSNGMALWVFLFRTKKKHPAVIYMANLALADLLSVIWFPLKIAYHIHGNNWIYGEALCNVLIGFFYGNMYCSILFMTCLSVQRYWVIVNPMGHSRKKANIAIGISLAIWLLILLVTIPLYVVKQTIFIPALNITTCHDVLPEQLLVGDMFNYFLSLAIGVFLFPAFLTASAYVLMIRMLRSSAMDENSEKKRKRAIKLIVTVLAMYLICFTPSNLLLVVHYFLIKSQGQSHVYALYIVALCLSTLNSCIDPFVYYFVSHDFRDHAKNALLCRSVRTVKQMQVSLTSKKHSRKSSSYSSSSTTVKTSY
# Experimental: (§1) KNRK-hPAR2, KNRK or HT-29 cells were seeded at a density of 50×10^3 cells/well in a clear poly-d-lysine coated 96 well tissue culture plate. Following 24 h incubation at 37° C. and 5% CO2, media was removed and replaced with 80 μl IP1 stimulation buffer (10 mM HEPES, 1 mM CaCl2, 0.5 mM MgCl2, 4.2 mM KCl, 146 mM NaCl, 5.5 mM glucose, 50 mM LiCl). Following stimulation buffer addition, the wells received 10 μl of 10× antagonists or DMSO vehicle. All plates were further incubated at 37° C., 5% CO2 for 30 min. 10 μl of 2F or ATP was added to the plates and further incubated for 40 min. Following incubation, stimulation buffer was quickly removed by aspiration and replaced with 25 μl lysis buffer (IP-One HTRF® assay kit, Cisbio). Following incubation of the lysates at 37° C., 5% CO2 for 10′, 10 μl lysate was transferred to a 384-well OptiPlate (PerkinElmer) and detected using the IP-One HTRF® assay kit (Cisbio).
# (§2) Compounds of the invention (added at 10×concentrations in a 10 μL volume) were incubated for 30 min prior to the addition of 10 μM ATP or 100 nM or 300 nM PAR2 agonist (2F; EC80, added at 10×concentrations in a 10 μL volume) and then further incubated for 40 min. After lysis, the inositol phosphate 1 was quantified with IP-One HTRF® assay kit, Cisbio. The data was analysed with Prism, GraphPad to calculate the IC50 values, shown below in Table 1.
# (§3) Inhibition of PAR2 signaling with known PAR2 inhibitor I-343 (FIG. 14A) was investigated in HT-29 cells and HEK293 cells, which express endogenous PAR2, and in KNRK cells expressing human (h) PAR2. Accumulation of inositol phosphate-1 (IP1) was measured in response to the PAR2-selective agonist 2-Furoyl-LIGRLO-NH2 (2F), an analogue of the trypsin-exposed tethered ligand, or trypsin.
# (§4) KNRK-hPAR2, KNRK, HEK293, or HT-29 cells were seeded at a density of 50×10^3 cells/well onto clear 96-well plates (PerkinElmer). After 24 h of culture, medium was replaced with IP1 stimulation buffer (10 mM HEPES, 1 mM CaCl2, 0.5 mM MgCl2, 4.2 mM KCl, 146 mM NaCl, 5.5 mM glucose, 50 mM LiCl; 37° C., 5% CO2.). Cells were pre-incubated with the antagonist or vehicle for 30 min prior to the addition of agonist. Cells were then further incubated for 40 min. Stimulation buffer was […]
# [3] = test system: mouse DRG neurons; assay: Patch clamp rheobase of DRG neurons: protease-induced hyperexcitability of nociceptors
# [4] = target: T2, human (h) PAR2 (Homo sapiens, UniProt P55085); assay: IP1 accumulation assay in KNRK-hPAR2 cells; settings: 100 nM 2F; 30 μM of antagonist; read-out: KNRK-PAR2 100 nM 2F: ND (inhibition of 2F at 30 μM of antagonist)
# T2 construct: expressed in transfected cells; host or cells: KNRK cells (KNRK-hPAR2)
# T2 sequence (P55085 26-397): T1 sequence (P55085 26-397)
# Experimental: as §1, §2, §3, §4
compound,measurement,setting,value
"CC(C)CCCC(C)[C@H]1CCC2C3CCC4C[C@@H](OC(=O)CC(NC(=O)CCOCCOCCOCCOCCOCCOCCOCCOCCOCCOCCOCCOCCNC(=O)Cn5cc(C(=O)N6CCN(C(=O)c7cn8nc(-c9ccc(F)cc9)cc(C(C)(C)C)c8n7)C(C)(C)C6)nn5)C(N)=O)CC[C@]4(C)C3CC[C@@]21C (stereo in doubt) [Compound 10, (3S,10S,13R,17R)-10,13-dimethyl-17-((R)-6-methylheptan-2-yl)hexadecahydro-1H-cyclopenta[a]phenanthren-3-yl (44S)-1-(4-(4-(8-(tert-butyl)-6-(4-fluorophenyl)imidazo[1,2-b]pyridazine-2-carbonyl)-3,3-dimethylpiperazine-1-carbonyl)-1H-1,2,3-triazol-1-yl)-44-carbamoyl-2,42-dioxo-6,9,12,15,18,21,24,27,30,33,36,39-dodecaoxa-3,43-diazahexatetracontan-46-oate]",excitability of neurons treated with HC supernatant,[1],did not affect
same,"rheobase at 30 min, IBS-D supernatant",[1],64.7±3.84 pA
same,persistent actions of IBS-D supernatant on nociceptor excitability,"[1]; 30 μM, 60 min preincubation, washed",completely prevented
same,pIC50,[2]; read-out: HT-29 300 nM 2F (IC50),6.17
same,IC50,[2]; read-out: HT-29 300 nM 2F pIC50 ± SEM (converted),661 nM
same,baseline rheobase,[3],no effect
same,initial excitability at 0 min after trypsin,[3],did not affect
same,persistent response at 30 min after trypsin,[3],prevented
same,inhibition at 30 µM,[4],< 50%
